Source: PubChem BioAssay (NCI)
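Where inhibition never reached the appropriate level, the endpoint shown equals the highest concentration tested. Otherwise, values were interpolated linearly from a five-concentration, 48-hour dose response in 96-well plates. Abbreviation: GI50, concentration required for 50% inhibition of growth. TGI denotes the concentration required for complete inhibition of growth.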

Key:
Assay in all cases: DTP human tumour cell line panel, 48 h
HCT-15 colon = tested on: HCT-15 colon
U251 CNS = tested on: U251 CNS
CCRF-CEM leukemia = tested on: CCRF-CEM leukemia
DU-145 prostate = tested on: DU-145 prostate
T-47D breast = tested on: T-47D breast
RPMI-8226 leukemia = tested on: RPMI-8226 leukemia
MCF7 breast = tested on: MCF7 breast
HT29 colon = tested on: HT29 colon
IGROV1 ovarian = tested on: IGROV1 ovarian
A549 NSCLC = tested on: A549 NSCLC

Structure (SMILES) | GI50 (HCT-15 colon) | TGI (HCT-15 colon) | GI50 (U251 CNS) | TGI (U251 CNS) | GI50 (CCRF-CEM leukemia) | TGI (CCRF-CEM leukemia) | GI50 (DU-145 prostate) | TGI (DU-145 prostate) | GI50 (T-47D breast) | TGI (T-47D breast) | GI50 (RPMI-8226 leukemia) | TGI (RPMI-8226 leukemia) | TGI (MCF7 breast) | GI50 (HT29 colon) | TGI (HT29 colon) | GI50 (IGROV1 ovarian) | TGI (IGROV1 ovarian) | GI50 (A549 NSCLC) | TGI (A549 NSCLC) | GI50 (MCF7 breast)
COc1ccc2cc(C(=O)/C=C/c3ccccc3OC)ccc2c1 | 1.67 µM | 14.3 µM | 4.33 µM | 15.6 µM | 1.16 µM | 7.52 µM | 2.63 µM | 8.07 µM | 2.58 µM | > 89.1 µM | 1.65 µM | 10.6 µM | > 100 µM | 1.67 µM | > 45.5 µM | 0.769 µM | 4.06 µM | 4.69 µM | 11.9 µM | 
COc1ccc2c(c1)c(=O)oc1cc(OC/C(=N\O)c3ccc(F)cc3)ccc12 | 20.5 µM | 61.2 µM | 20.2 µM | 48.1 µM | 7.07 µM | > 100 µM | 33.3 µM | > 100 µM | 28.4 µM | > 100 µM | 16.7 µM | 56.4 µM | 66 µM | 15.5 µM | 36.6 µM | 20.5 µM | 50.5 µM | 27.8 µM | > 100 µM | 19.8 µM
NNc1nc(-c2ccccn2)nc2sc3c(c12)CCCCCC3 | 1.12 µM | > 100 µM | 4.5 µM | 49.6 µM | 4.42 µM | > 100 µM | 9.48 µM | > 100 µM | 5.01 µM | > 100 µM | 3.25 µM | 24.5 µM | > 100 µM | 5.53 µM | > 100 µM | 4.21 µM | > 100 µM | 3.18 µM | > 100 µM | 3.84 µM
CCNCCNc1cc(C2CCCC2)c(C#N)c2nc3ccccc3n12 | 3.07 µM | 12.9 µM | 2.21 µM | 4.27 µM | 2.46 µM | 7.75 µM | 3.71 µM | 13.8 µM | 2.58 µM | 7.14 µM | 2.69 µM | 7.35 µM | 13.7 µM | 2.37 µM | 5.98 µM | 3.5 µM | 16 µM | 3.59 µM | 8.22 µM | 2.58 µM
O=S(=O)(c1ccccc1)C1CN(Cc2ccccc2)CCN(Cc2ccccc2)C1 |  | > 100 µM |  | > 100 µM |  | > 100 µM |  | > 100 µM |  | > 100 µM |  | 53.4 µM | > 100 µM |  | > 100 µM |  | > 100 µM |  | > 100 µM | 
CSc1ccc2c(c1)C(=O)c1c-2n(CCCN=[N+]=[N-])c(=O)c2cc([N+](=O)[O-])ccc12 | > 87.1 µM | > 100 µM | 1.1 µM | > 100 µM | 0.239 µM | 10.9 µM | 1.73 µM | > 100 µM | 4.58 µM | > 100 µM | 1.72 µM | 23.2 µM | > 100 µM | 4.3 µM | > 100 µM | 8.86 µM | > 100 µM | 3.25 µM | > 100 µM | 4.09 µM
CC(=O)/C=C/c1ccc(N(C)Cc2ccc(C(C)(C)C)cc2)cc1 | 89.7 µM | 327 µM | 125 µM | 268 µM | 164 µM | 903 µM | 147 µM | 472 µM | 47.8 µM | 405 µM | 53.9 µM | 237 µM | 318 µM | 58.4 µM |  | 241 µM |  | 156 µM | 788 µM | 45.5 µM
COC1(C)Cc2c(c(C)c(O)c3c2C(=O)C=C(Cl)C3=O)O1 (configuration not stated) |  | > 71.9 µM |  | > 100 µM |  | 26.3 µM |  | > 100 µM |  | 36.7 µM |  | 52.1 µM | > 100 µM |  | 67 µM |  | > 100 µM |  | > 100 µM | 
CCOC(=O)C1=C(N)Oc2cc(OC)ccc2C1c1ccc(F)c(F)c1 (configuration not stated) | 0.503 µM | 14.3 µM | 1.84 µM | 14.3 µM | 2.26 µM | 19.7 µM | 2.56 µM | 11.4 µM | 1.72 µM | 20 µM | 2.73 µM | 18.2 µM | 18.7 µM | 0.481 µM | 11 µM | 2.72 µM | 20.1 µM | 2.08 µM | 19.4 µM | 0.452 µM
N=c1c2c(=O)n3c(nc2nc2sc4ccc(Cl)cc4n12)-c1ccccc1Sc1ccccc1-3 | 2.96 µM | 14.5 µM | 2.8 µM | 12.6 µM | 2.32 µM | > 100 µM | 4.31 µM | 19.7 µM | 2.54 µM | 7.23 µM | 1.44 µM | > 100 µM | 21.8 µM | 3.8 µM | 18 µM | 3.81 µM | 18.3 µM | 1.98 µM | 12.5 µM | 3.06 µM
O=C1[C@H](c2ccccc2)C2c3ccccc3CCN12 (some centres not stated) | > 100 µM | > 100 µM | > 100 µM | > 100 µM | > 100 µM | > 100 µM | > 100 µM | > 100 µM | > 100 µM | > 100 µM | > 100 µM | > 100 µM | > 100 µM | > 100 µM | > 100 µM | > 100 µM | > 100 µM | > 100 µM | > 100 µM | > 100 µM
